The source of these data is ChEMBL document CHEMBL5143550, “Thiol- and Disulfide-Containing Vancomycin Derivatives Against Bacterial Resistance and Biofilm Formation” (2021).

Holding throughout (type): functional
The subject of experiment [1] is Staphylococcus aureus. The experiment is described as follows: Antibacterial activity against methicillin-resistant Staphylococcus aureus ATCC 43300 assessed as inhibition of bacterial growth by standard broth microdilution susceptibility method. Background: In broth dilution the organism is exposed to a series of concentrations in liquid medium.
The subject of experiment [2] is Streptococcus pneumoniae. The experiment is described as follows: Potency index, ratio of vancomycin MIC to test compound MIC for antibacterial activity against […] assessed as inhibition of bacterial growth by standard broth microdilution susceptibility method.
The test system of experiment [3] is Enterococcus faecalis. The experiment is described as follows: Antibacterial activity against VanB-resistant Enterococcus faecalis ATCC 51299 assessed as inhibition of bacterial growth by standard broth microdilution susceptibility method.
The test system of experiment [4] is Enterococcus faecalis. The experiment is described as follows: Antibiofilm activity against VanB-resistant Enterococcus faecalis ATCC 51299 assessed as inhibition of biofilm formation in BHIG medium incubated for 24 hrs by resazurin assay. A general note: The colour change of resazurin is a common sign of viable cells or microbes.
In experiment [5] the test system is Staphylococcus aureus. The experiment is described as follows: Antibacterial activity against heterogenous vancomycin-intermediate Staphylococcus aureus ATCC NRS24 assessed as inhibition of bacterial growth by standard broth microdilution susceptibility method.
Experiment [6] concerns Enterococcus gallinarum. The experiment is described as follows: Antibacterial activity against VanC-resistant Enterococcus gallinarum ATCC 700221 assessed as inhibition of bacterial growth by standard broth microdilution susceptibility method.
In experiment [7] the test system is Streptococcus pneumoniae. The experiment is described as follows: Antibacterial activity against […] assessed as inhibition of bacterial growth by standard broth microdilution susceptibility method.
The test system of experiment [8] is Enterococcus faecalis. The experiment is described as follows: Antibacterial activity against VanB-resistant Enterococcus faecalis ATCC 51299 assessed as inhibition of colony formation in BHIG medium incubated for 24 hrs by resazurin assay.
Experiment [9] has as its system Enterococcus faecalis. The experiment is described as follows: Antibacterial activity against VanB-resistant Enterococcus faecalis ATCC 51299 assessed as inhibition of bacterial growth in BHIG medium incubated for 24 hrs by resazurin assay.
Experiment [10] concerns Clostridioides difficile. The experiment is described as follows: Potency index, ratio of vancomycin MIC to test compound MIC for antibacterial activity against Clostridium difficile ATCC 43255 assessed as inhibition of bacterial growth by standard broth microdilution susceptibility method.
The test system of experiment [11] is Moraxella catarrhalis. The experiment is described as follows: Antibacterial activity against Moraxella catarrhalis ATCC 8193 assessed as inhibition of bacterial growth by standard broth microdilution susceptibility method.
The subject of experiment [12] is Enterococcus faecalis. The experiment is described as follows: Antibiofilm activity against VanB-resistant Enterococcus faecalis ATCC 51299 assessed as inhibition of biofilm formation by measuring decrease in RFU in BHIG medium incubated for 24 hrs by resazurin assay.
Experiment [13] deals with Staphylococcus aureus. The experiment is described as follows: Antibacterial activity against vancomycin-intermediate Staphylococcus aureus ATCC NRS1 assessed as inhibition of bacterial growth by standard broth microdilution susceptibility method.
The test system of experiment [14] is Staphylococcus aureus. The experiment is described as follows: Antibacterial activity against Staphylococcus aureus ATCC 25923 assessed as inhibition of bacterial growth by standard broth microdilution susceptibility method.
The subject of experiment [15] is Clostridioides difficile. The experiment is described as follows: Antibacterial activity against Clostridium difficile ATCC 43255 assessed as inhibition of bacterial growth by standard broth microdilution susceptibility method.
In experiment [16] the test system is Enterococcus faecium. The experiment is described as follows: Antibacterial activity against VanA-resistant Enterococcus faecium MMX0485 assessed as inhibition of bacterial growth by standard broth microdilution susceptibility method.
Experiment [17] has as its system Staphylococcus aureus. The experiment is described as follows: Potency index, ratio of vancomycin MIC to test compound MIC for antibacterial activity against vancomycin-intermediate Staphylococcus aureus ATCC NRS1 assessed as inhibition of bacterial growth by standard broth microdilution susceptibility method.
Experiment [18] deals with Staphylococcus aureus. The experiment is described as follows: Potency index, ratio of vancomycin MIC to test compound MIC for antibacterial activity against heterogenous vancomycin-intermediate Staphylococcus aureus ATCC NRS24 assessed as inhibition of bacterial growth by standard broth microdilution susceptibility method.
Experiment [19] has as its system Enterococcus faecium. The experiment is described as follows: Potency index, ratio of vancomycin MIC to test compound MIC for antibacterial activity against VanA-resistant Enterococcus faecium MMX0485 assessed as inhibition of bacterial growth by standard broth microdilution susceptibility method.
The test system of experiment [20] is Enterococcus faecalis. The experiment is described as follows: Potency index, ratio of vancomycin MIC to test compound MIC for antibacterial activity against VanB-resistant Enterococcus faecalis ATCC 51299 assessed as inhibition of bacterial growth by standard broth microdilution susceptibility method.
The subject of experiment [21] is Enterococcus faecalis. The experiment is described as follows: Antibiofilm activity against VanB-resistant Enterococcus faecalis ATCC 51299 assessed as inhibition of biofilm formation in BHIG medium incubated for 24 hrs by resazurin assay relative to vancomycin.
Experiment [22] has as its system Enterococcus gallinarum. The experiment is described as follows: Potency index, ratio of vancomycin MIC to test compound MIC for antibacterial activity against VanC-resistant Enterococcus gallinarum ATCC 700221 assessed as inhibition of bacterial growth by standard broth microdilution susceptibility method.

≈ marks a conversion by molar mass, not a printed value. A value given as a limit tells only on which side of the number the result lay.

Take `CN[C@H](CC(C)C)C(=O)N[C@H]1C(=O)N[C@@H](CC(N)=O)C(=O)N[C@H]2C(=O)N[C@H]3C(=O)N[C@H](C(=O)N[C@H](C(=O)NCCCCCS)c4cc(O)cc(O)c4-c4cc3ccc4O)[C@H](O)c3ccc(c(Cl)c3)Oc3cc2cc(c3O[C@@H]2O[C@H](CO)[C@@H](O)[C@H](O)[C@H]2O[C@H]2C[C@](C)(N)[C@H](O)[C@H](C)O2)Oc2ccc(cc2Cl)[C@H]1O`: the MIC is 8 µg/mL (≈ 5.16 µM) in experiment [1]; 1 µg/mL (≈ 0.645 µM) in experiment [3]; greater than 32 µg/mL in [5]; 0.5 µg/mL (≈ 0.322 µM) in [6]; no more than 0.03 µg/mL in experiment [7]; 4 µg/mL (≈ 2.58 µM) in experiment [11]. The MIC came out at 2 µg/mL (≈ 1.29 µM) in experiment [13], 8 µg/mL (≈ 5.16 µM) in experiment [14], 0.06 µg/mL (≈ 0.0387 µM) in [15] and 1 µg/mL (≈ 0.645 µM) in experiment [16]. Further, the Ratio in [2] and in [10] was 16 in each case. Moreover, the MBIC in experiment [4] was determined as 32 µg/mL. Moreover, the Activity in experiment [8] worked out at 32 µg/mL. Besides, the entries for the “inhibition (INH)” value in experiment [9] and in experiment [12] were 100% and 99%, respectively.

For `CN[C@H](CC(C)C)C(=O)N[C@H]1C(=O)N[C@@H](CC(N)=O)C(=O)N[C@H]2C(=O)N[C@H]3C(=O)N[C@H](C(=O)N[C@H](C(=O)NCCCCCNC(=O)CCCCC4CCSS4)c4cc(O)cc(O)c4-c4cc3ccc4O)[C@H](O)c3ccc(c(Cl)c3)Oc3cc2cc(c3O[C@@H]2O[C@H](CO)[C@@H](O)[C@H](O)[C@H]2O[C@H]2C[C@](C)(N)[C@H](O)[C@H](C)O2)Oc2ccc(cc2Cl)[C@H]1O` (stereo partly drawn), the MIC in experiment [1] worked out at 2 µg/mL (≈ 1.16 µM); in [3], 4 µg/mL (≈ 2.32 µM); in experiment [5], 32 µg/mL (≈ 18.6 µM); in experiment [6], 8 µg/mL (≈ 4.65 µM); in experiment [7], 0.06 µg/mL (≈ 0.0348 µM); in [11], 4 µg/mL (≈ 2.32 µM). For the same compound, the MIC in experiment [13] is 1 µg/mL (≈ 0.581 µM); in [14] it was 2 µg/mL (≈ 1.16 µM); in experiment [15] it was 0.06 µg/mL (≈ 0.0348 µM); in experiment [16] it was greater than 32 µg/mL. The Ratio in [2], in experiment [10], in experiment [17] and in experiment [18] was 4 in each case. Besides, the MBIC in experiment [4] was determined as 8 µg/mL. The Activity in [8] stood at 8 µg/mL. The “inhibition (INH)” value in experiment [9] and in experiment [12] was 100% throughout.

As for `CN[C@H](CC(C)C)C(=O)N[C@H]1C(=O)N[C@@H](CC(N)=O)C(=O)N[C@H]2C(=O)N[C@H]3C(=O)N[C@H](C(=O)N[C@H](C(=O)NCCSSCCNC(=O)CCSC(c4ccccc4)(c4ccccc4)c4ccccc4)c4cc(O)cc(O)c4-c4cc3ccc4O)[C@H](O)c3ccc(c(Cl)c3)Oc3cc2cc(c3O[C@@H]2O[C@H](CO)[C@@H](O)[C@H](O)[C@H]2O[C@H]2C[C@](C)(N)[C@H](O)[C@H](C)O2)Oc2ccc(cc2Cl)[C@H]1O`, the MIC was 4 µg/mL (≈ 2.09 µM) in [1], 2 µg/mL (≈ 1.04 µM) in experiment [3], 1 µg/mL (≈ 0.522 µM) in [6] and 8 µg/mL (≈ 4.18 µM) in [14]. Further, the Ratio in experiment [19] came to 8; in experiment [20] it was 8; in [21], 32; in experiment [17] it was 8; in experiment [18] it was 8; in [22], 8. The MBIC in [4] came to 2 µg/mL. In addition, in [8], the Activity is 2 µg/mL. Further, the figures for the “inhibition (INH)” value in experiment [9] and in [12] were 100% and 97%, respectively.

By MIC is commonly meant the least concentration at which growth counts as inhibited.
